Several values for one entry are separate records, joined by “and”; a condition that tells them apart may be missing. Equal values may be shown once.

For this assay, the system named is 996289-038-R-J1-PDC complex spheroid viability. As to the kind of experiment: Anticancer human tumor 996289-038-R-J1-PDC patient-derived colon adenocarcinoma cell line growth inhibition [CLK]. To be noted: for viability, T/C: stronger effect = lower value. A digest of the protocol:
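Patient-derived tumor cells grown as complex spheroids with HUVEC endothelial cells and mesenchymal stem cells, treated with drug combinations. Concentrations descend in half-log steps from near clinical Cmax, or from 10 microM if Cmax unknown.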

Where [1] appears, read: curve of first compound, second compound 0.0316 µM.
Setting [2] is: curve of first compound, second compound 0.1 µM.
Setting [3] is: curve of first compound, second compound 0.316 µM.
Setting [4] is: curve of first compound, second compound 1 µM.
Setting [5] is: curve of first compound, second compound 3.16 µM.
Where [6] appears, read: curve of first compound, second compound 10 µM.
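Note: spheroids exposed to the agents for 7 days before readout.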

Regarding `CC(C)CC(NC(=O)C(Cc1ccccc1)NC(=O)c1cnccn1)B(O)O` (stereo not given) + CN1CCN(c2cc(C(=O)Nc3cc4cc(-c5cnn(C)c5)ccc4cn3)ccn2)CC1, the IC50 under setting [1] is 0.00469 µM; the IC50 under setting [2] worked out at 0.0039 µM; the half-maximal inhibitory concentration (IC50) under setting [3] was 0.00203 µM; the IC50 under setting [4] was below 0.000949 µM; the IC50 under setting [5] is below 0.000949 µM; the IC50 under setting [6] was below 0.000949 µM. The viability, T/C by setting is: (second compound 0.0316 µM, first compound 0.000949 µM) 119%; (second compound 0.0316 µM, first compound 0.003 µM) 77.7%; (second compound 0.0316 µM, first compound 0.00949 µM) 6.22%; (second compound 0.0316 µM, first compound 0.03 µM) 4.45%; (second compound 0.0316 µM, first compound 0.0949 µM) 2.91%; (second compound 0.0316 µM, first compound 0.3 µM) 0.26%. For the same compound, the viability, T/C by setting is: (second compound 0.1 µM, first compound 0.000949 µM) 97.5%; (second compound 0.1 µM, first compound 0.003 µM) 62.8%; (second compound 0.1 µM, first compound 0.00949 µM) 6.36%; (second compound 0.1 µM, first compound 0.03 µM) 0.64%; (second compound 0.1 µM, first compound 0.0949 µM) 0.55%; (second compound 0.1 µM, first compound 0.3 µM) 0.33%. Also, the viability, T/C (second compound 0.316 µM, first compound 0.000949 µM) was 70.5%; the viability, T/C (second compound 0.316 µM, first compound 0.003 µM) was 39.5%; the viability, T/C (second compound 0.316 µM, first compound 0.00949 µM) is 2.17%; the viability, T/C (second compound 0.316 µM, first compound 0.03 µM) is 2.47%; the viability, T/C (second compound 0.316 µM, first compound 0.0949 µM) was 0.77%; the viability, T/C (second compound 0.316 µM, first compound 0.3 µM) is 1.41%. In addition, the viability, T/C is, setting by setting: (second compound 1 µM, first compound 0.000949 µM) 2.7%; (second compound 1 µM, first compound 0.003 µM) 0.91%; (second compound 1 µM, first compound 0.00949 µM) 1.02%; (second compound 1 µM, first compound 0.03 µM) 0.56%; (second compound 1 µM, first compound 0.0949 µM) 0.24%; (second compound 1 µM, first compound 0.3 µM) 0.28%. In addition, the viability, T/C is 0.51% (second compound 3.16 µM, first compound 0.000949 µM); 0.34% (second compound 3.16 µM, first compound 0.003 µM); 0.26% (second compound 3.16 µM, first compound 0.00949 µM); 0.67% (second compound 3.16 µM, first compound 0.03 µM); 0.47% (second compound 3.16 µM, first compound 0.0949 µM); 0.21% (second compound 3.16 µM, first compound 0.3 µM). Besides, the viability, T/C is 0.41% (second compound 10 µM, first compound 0.000949 µM); 1.36% (second compound 10 µM, first compound 0.003 µM); 1.47% (second compound 10 µM, first compound 0.00949 µM); 1.13% (second compound 10 µM, first compound 0.03 µM); 0.38% (second compound 10 µM, first compound 0.0949 µM); 0.22% (second compound 10 µM, first compound 0.3 µM).
Consider `COc1cccc2c1C(=O)c1c(O)c3c(c(O)c1C2=O)CC(O)(C(=O)CO)CC3OC1CC(N)C(O)C(C)O1` (stereo not given), for which the viability, T/C was 100% and 103% (compound 0.0316 µM); 87.1% and 86.2% (compound 0.1 µM); 76.5% and 79.6% (compound 0.316 µM); 59.4% and 62.6% (compound 1 µM); 49% and 51.9% (compound 3.16 µM); 35.5% and 36.7% (compound 10 µM). Besides, under “curve of compound”, the half-inhibitory concentration (IC50) is 2.65 µM and 3.33 µM.
On to `CC(=O)O[C@H]1C(=O)[C@@]2(C)[C@H]([C@H](OC(=O)c3ccccc3)[C@]3(O)C[C@H](OC(=O)[C@H](O)[C@@H](NC(=O)c4ccccc4)c4ccccc4)C(C)=C1C3(C)C)[C@]1(OC(C)=O)CO[C@@H]1C[C@@H]2O` + CNC(=O)c1ccc(Nc2nc(OC3CCCC3)c3c(-c4ccc5nc(C)oc5c4)c[nH]c3n2)c(OC)c1, for which the IC50 under setting [1] was above 10 µM; the IC50 under setting [2] was above 10 µM; the IC50 under setting [3] was above 10 µM; the IC50 under setting [4] is above 10 µM; the IC50 under setting [5] is above 10 µM; the IC50 under setting [6] was above 10 µM. Also, the viability, T/C by setting is: (second compound 0.0316 µM, first compound 0.0316 µM) 109%; (second compound 0.0316 µM, first compound 0.1 µM) 103%; (second compound 0.0316 µM, first compound 0.316 µM) 79.9%; (second compound 0.0316 µM, first compound 1 µM) 70.3%; (second compound 0.0316 µM, first compound 3.16 µM) 67.4%; (second compound 0.0316 µM, first compound 10 µM) 64.6%. Besides, the viability, T/C was 110% (second compound 0.1 µM, first compound 0.0316 µM); 96% (second compound 0.1 µM, first compound 0.1 µM); 80% (second compound 0.1 µM, first compound 0.316 µM); 79.2% (second compound 0.1 µM, first compound 1 µM); 74.8% (second compound 0.1 µM, first compound 3.16 µM); 65.4% (second compound 0.1 µM, first compound 10 µM). Besides, the viability, T/C reads like this: (second compound 0.316 µM, first compound 0.0316 µM) 68.6%; (second compound 0.316 µM, first compound 0.1 µM) 70.3%; (second compound 0.316 µM, first compound 0.316 µM) 65.6%; (second compound 0.316 µM, first compound 1 µM) 66.3%; (second compound 0.316 µM, first compound 3.16 µM) 69.2%; (second compound 0.316 µM, first compound 10 µM) 73.3%. Moreover, the viability, T/C (second compound 1 µM, first compound 0.0316 µM) is 63.2%; the viability, T/C (second compound 1 µM, first compound 0.1 µM) is 59%; the viability, T/C (second compound 1 µM, first compound 0.316 µM) was 57.5%; the viability, T/C (second compound 1 µM, first compound 1 µM) was 53.5%; the viability, T/C (second compound 1 µM, first compound 3.16 µM) is 62.9%; the viability, T/C (second compound 1 µM, first compound 10 µM) is 61.8%. For the same compound, the viability, T/C is 59.6% (second compound 3.16 µM, first compound 0.0316 µM); 55% (second compound 3.16 µM, first compound 0.1 µM); 54% (second compound 3.16 µM, first compound 0.316 µM); 54.3% (second compound 3.16 µM, first compound 1 µM); 59% (second compound 3.16 µM, first compound 3.16 µM); 65.2% (second compound 3.16 µM, first compound 10 µM). For the same compound, the viability, T/C is 56.7% (second compound 10 µM, first compound 0.0316 µM); 53.5% (second compound 10 µM, first compound 0.1 µM); 55.2% (second compound 10 µM, first compound 0.316 µM); 53.8% (second compound 10 µM, first compound 1 µM); 59.6% (second compound 10 µM, first compound 3.16 µM); 53.7% (second compound 10 µM, first compound 10 µM).
For the compound `CC1(C)CCC(CN2CCN(c3ccc(C(=O)NS(=O)(=O)c4ccc(NCC5CCOCC5)c([N+](=O)[O-])c4)c(Oc4cnc5[nH]ccc5c4)c3)CC2)=C(c2ccc(Cl)cc2)C1`, the viability, T/C is, setting by setting: (compound 0.0316 µM) 108% and 106%; (compound 0.1 µM) 94.2% and 83.6%; (compound 0.316 µM) 101% and 109%; (compound 1 µM) 109% and 100%; (compound 3.16 µM) 118% and 121%; (compound 10 µM) 38.2% and 44.7%. Under “curve of compound”, the IC50 was 8.2 µM and 9.04 µM.
On to `CC(Nc1ccc2c(c1)OCCn1cc(N3C(=O)OCC3C(F)F)nc1-2)C(N)=O` (stereo not given), for which the viability, T/C reads like this: (compound 0.0316 µM) 97.5% and 100%; (compound 0.1 µM) 78.5% and 75.5%; (compound 0.316 µM) 72.1% and 74.9%; (compound 1 µM) 63.5% and 60.5%; (compound 3.16 µM) 54.1% and 53.5%; (compound 10 µM) 46.5% and 44.3%. In addition, the IC50 (curve of compound) was 6.04 µM and 4.5 µM.

What is called IC50 is the concentration at which inhibition is half-maximal. What is called viability, T/C is the ratio of treated to control.

For the origin of these results see PubChem BioAssay AID2060600 (Molecular Pharmacology Branch, DTP, NCI, 2025).
